Measurements as given in patent US9340577B2, “HLA binding motifs and peptides and their uses” (priority 1992, dated 2016).
pIC50: −log10 of the molar value. No end group written: not given here.

Assays:
Test in all cases: biochemical
DRB1*1501 = DRB1*1501 (Homo sapiens, UniProt P01903+P01911); assay type: binding
DRB1*0901 = DRB1*0901 (Homo sapiens, UniProt P01903+P01911, A100R/A103E/D57H/D86V/F55Y/F60I/F76Y/I96F/K127E/L162R/M171V/P40D/Q125H/Q99R/R33Q/R42F/S133A/S66N/T210M/V115G/W38K/Y107V/Y59G/Y89S); assay type: binding
DRB1*0301 = DRB1*0301 (Homo sapiens, UniProt P01903+P01911, A100K/A102G/A103R/A169T/F55Y/I96L/K41T/L162R/M171V/P40S/Q125H/Q178H/Q39Y/R42S/S66N/T106N/T262R/W38E/Y61H); assay type: binding
DRB1*0301, sequence (P01903 26-254 limits assumed, other chains not shown): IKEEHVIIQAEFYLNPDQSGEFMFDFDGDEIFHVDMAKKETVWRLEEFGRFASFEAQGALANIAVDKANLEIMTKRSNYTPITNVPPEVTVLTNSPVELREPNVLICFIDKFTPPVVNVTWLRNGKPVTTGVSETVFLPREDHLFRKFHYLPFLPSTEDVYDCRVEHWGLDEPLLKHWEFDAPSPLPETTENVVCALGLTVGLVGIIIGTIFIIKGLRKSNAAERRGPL

DRB1*0802 = DRB1*0802 (Homo sapiens, UniProt P01903+P01911, A100R/A103L/A169T/F76Y/H45Y/I96F/K41T/L162R/M171V/P40S/Q125H/Q178H/Q39Y/Q99D/R218S/R42G/S66Y/V115G/W38E); assay type: binding
DR4w4 (DRB1*0401) = DR4w4 (DRB1*0401) (Homo sapiens, UniProt P01903+P01911, A100K/A169T/F76Y/I96L/K127E/L162R/M171V/N62H/P40V/Q125Y/R42H/S133A/S149N/S66Y/V115G/V209L/W38E); assay type: binding
DR7 (DRB1*0701) = DR7 (DRB1*0701) (Homo sapiens, UniProt P01903+P01911, A100R/A102G/A103Q/D57E/D86V/E43K/F76Y/K127E/L162R/M171V/P40G/Q125H/Q99D/R33Q/R42Y/R54Q/S133A/S66F/T210M/V115G/Y107V/Y59L/Y89S); assay type: binding
DRB1*1201 = DRB1*1201 (Homo sapiens, UniProt P01903+P01911, A100R/A169T/D57E/D86V/F55L/H45Y/K41T/L162R/M171V/P40S/Q125H/Q178H/Q39Y/Q99D/R42G/S66L/T262R/V114A/V67L/W38E/Y59H/Y61H/Y89S); assay type: binding
DRB5*0101 = DRB5*0101 (Homo sapiens, UniProt P01903+Q30154); settings: Binding affinity DRB5 *0101
DRB1*1302 = DRB1*1302 (Homo sapiens, UniProt P01903+P01911, A100E/A169T/K41T/L162R/M171V/P40S/Q125H/Q178H/Q39Y/Q99D/R42S/S66N/T262R/V115G/W38E/Y61H); assay type: binding
DRB1*1302, sequence (P01903 26-254 limits assumed, other chains not shown): as above

DRB4*0101 = DRB4*0101 (Homo sapiens, UniProt P01903+P13762, G164S); assay type: binding
DR1 (DRB1*0101) = DR1 (DRB1*0101) (Homo sapiens, UniProt P01903+P01911, A100R/D57E/F55L/F60I/F76Y/I96L/L162R/M171V/P40L/Q125E/R42F/V115G/Y59C); assay type: binding
DRB1*0405 = DRB1*0405 (Homo sapiens, UniProt P01903+P01911, A100R/A169T/D86S/F76Y/I96L/K127E/L162R/M171V/N62H/P40V/Q125Y/R42H/S133A/S149N/S66Y/V115G/V209L/W38E); assay type: binding
DRB3*0101 = DRB3*0101 (Homo sapiens, UniProt P01903+P79483); assay type: binding
A*2902 = A*2902 (Homo sapiens, UniProt P04439, A270S/D101N/D185E/E176V/E277Q/E87Q/F33T/G231S/H175R/I121M/I218V/I322F/K168Q/L300P/L318F/M331R/P208A/P217A/Q86L/T323A/T345S/V100A/V358M); assay type: binding
HLA-A1 (A*0101) = HLA-A1 (A*0101) (Homo sapiens, UniProt P04439, A114D/A174V/A182V/D101N/D185E/E176A/E190D/L180R/Q94H/R68K/S129P/T187R/V100A/V91M/W191G); assay type: binding
DRB1*1101 = DRB1*1101 (Homo sapiens, UniProt P01903+P01911, A100R/A169T/A87E/I96F/K41T/L162R/M171V/P40S/Q125H/Q178H/Q39Y/Q99D/R42S/S66Y/T262R/V115G/W38E); settings: Binding affinity DRB1 *1101
DRB1*1101, sequence (P01903 26-254 limits assumed, other chains not shown): as above

A*3002 = A*3002 (Homo sapiens, UniProt P04439, D101N/D140H/D185E/E176R/F33S/G80R/H175R/K168Q/Q94H/R138E/R41S/V100E); assay type: binding
A*3002, sequence (P04439 whole entry, looked up, the tested form may be a part, stated change not applied): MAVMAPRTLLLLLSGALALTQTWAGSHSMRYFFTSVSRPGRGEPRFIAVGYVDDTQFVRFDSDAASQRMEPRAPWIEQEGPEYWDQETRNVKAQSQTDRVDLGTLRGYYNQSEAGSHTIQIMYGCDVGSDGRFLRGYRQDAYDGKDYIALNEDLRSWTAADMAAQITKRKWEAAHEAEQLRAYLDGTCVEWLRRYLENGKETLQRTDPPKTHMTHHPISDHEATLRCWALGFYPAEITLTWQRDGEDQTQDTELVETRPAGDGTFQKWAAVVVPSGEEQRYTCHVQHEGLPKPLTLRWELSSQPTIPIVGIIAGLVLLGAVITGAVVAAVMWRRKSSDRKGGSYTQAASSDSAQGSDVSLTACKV

Sequence | pIC50 (DRB1*1501) | pIC50 (DRB1*0901) | pIC50 (DRB1*0301) | pIC50 (DRB1*0802) | pIC50 (DR4w4 (DRB1*0401)) | pIC50 (DR7 (DRB1*0701)) | pIC50 (DRB1*1201) | pIC50 (DRB5*0101) | pIC50 (DRB1*1302) | pIC50 (DRB4*0101) | pIC50 (DR1 (DRB1*0101)) | pIC50 (DRB1*0405) | pIC50 (DRB3*0101) | pIC50 (A*2902) | pIC50 (HLA-A1 (A*0101)) | pIC50 (DRB1*1101) | pIC50 (A*3002)
CIHSTATDLRTLQQM [Peptide 1543.45] | 4.82 | 4.72 | 6.67 | 6.31 | 7.85 | 6.34 | 5.35 | 5.61 | 5.52 | 6.80 | 6.35 | 6.43 | < 4.70 | – | – | – | –
CSMSYTWTGA [Peptide 1489.14] | – | – | – | – | – | – | – | – | – | – | – | – | – | < 4.70 | < 4.70 | – | –
DGVSHAQLPARRAEP [Peptide 1543.18] | < 4.70 | < 4.70 | 5.61 | < 4.70 | < 4.70 | < 4.70 | < 4.70 | 6.41 | < 4.70 | 5.71 | – | < 4.70 | < 4.70 | – | – | < 4.70 | –
EDLRTLQQLFLSTLS [Peptide 1543.21] | 6.85 | 4.81 | 5.17 | 4.89 | 7.47 | 6.41 | 6.02 | < 4.70 | 8.12 | 7.77 | 7.70 | 6.24 | < 4.70 | – | – | 6.55 | –
FSITNWLWY [Peptide 9015.0008] | – | – | – | – | – | – | – | – | – | – | – | – | – | 7.43 | 7.13 | – | 6.06
GCWRQTSREPRESTV [Peptide 1543.46] | < 4.70 | 5.50 | 6.04 | 6.45 | 5.73 | 7.14 | < 4.70 | 5.37 | < 4.70 | < 4.70 | 5.58 | 5.64 | < 4.70 | – | – | 6.84 | –
ITKIQNFRVY [Peptide 9015.0173] | – | – | – | – | – | – | – | – | – | – | – | – | – | 5.75 | 5.02 | – | –
IVNRVRQGY [Peptide 1595.07] | – | – | – | – | – | – | – | – | – | – | – | – | – | 5.69 | 4.70 | – | 8.20
KERHVNANKRFHNIM [Peptide 1543.59] | 4.89 | 5.55 | 5.87 | 5.91 | 7.26 | – | 6.59 | 6.30 | 8.28 | 5.07 | 6.38 | 7.59 | < 4.70 | – | – | 7.08 | –
LADQLIHMHY [Peptide 9015.0186] | – | – | – | – | – | – | – | – | – | – | – | – | – | 5.51 | 8.09 | – | 6.09
LTDQLIHMHY [Peptide 9018.0032] | – | – | – | – | – | – | – | – | – | – | – | – | – | – | 8.18 | – | 6.46
LYCYEQLSDSSDEDE [Peptide 1543.13] | < 4.70 | < 4.70 | < 4.70 | < 4.70 | 5.95 | 5.01 | < 4.70 | < 4.70 | < 4.70 | 4.90 | 5.25 | 7.05 | < 4.70 | – | – | 5.47 | –
LYDQLIHMHY [Peptide 9018.0034] | – | – | – | – | – | – | – | – | – | – | – | – | – | 6.91 | – | – | 7.26
NSNTKATLLY [Peptide 1580.16] | – | – | – | – | – | – | – | – | – | – | – | – | – | 6.52 | – | – | 6.33
QERPRKLPQLCTELQ [Peptide 1543.22] | < 4.70 | < 4.70 | < 4.70 | < 4.70 | 5.29 | < 4.70 | 4.93 | < 4.70 | < 4.70 | 7.09 | < 4.70 | < 4.70 | < 4.70 | – | – | < 4.70 | –
QRFHNIRGRWTGRCM [Peptide 1543.27] | 4.76 | < 4.70 | < 4.70 | 6.05 | 5.54 | – | 4.84 | 6.04 | 5.28 | 5.34 | 7.44 | 5.35 | < 4.70 | – | – | 6.24 | –
QSTQVDIRILQELLM [Peptide 1543.11] | < 4.70 | < 4.70 | 5.57 | – | 5.34 | 5.27 | 5.63 | < 4.70 | 6.22 | 6.74 | 6.26 | 5.40 | < 4.70 | – | – | 5.19 | –
RHLDKKQRFHNIRGR [Peptide 1543.26] | < 4.70 | < 4.70 | 5.28 | 5.11 | 5.21 | 6.23 | < 4.70 | 5.24 | < 4.70 | < 4.70 | 6.25 | 5.81 | < 4.70 | – | – | – | –
RVCLLFYSKVRKYRY [Peptide 1543.54] | 6.14 | 6.18 | 7.15 | – | 6.52 | 6.63 | 6.22 | 5.41 | 7.05 | 5.11 | – | 6.63 | 6.06 | – | – | 5.37 | –
SEVYDFVFADLRIVY [Peptide 1543.48] | – | 7.48 | 8.24 | 5.39 | 6.21 | 7.29 | 5.09 | 5.63 | 7.34 | 5.85 | 6.39 | 5.53 | 6.25 | – | – | < 4.70 | –
SSSKVSQNY [Peptide 9015.0011] | – | – | – | – | – | – | – | – | – | – | – | – | – | 5.75 | – | – | 7.49
TELNTSLQDIEITCV [Peptide 1543.34] | < 4.70 | < 4.70 | < 4.70 | 5.26 | < 4.70 | < 4.70 | < 4.70 | < 4.70 | 5.15 | 6.04 | < 4.70 | < 4.70 | < 4.70 | – | – | < 4.70 | –
VTFDPIPIHY [Peptide 9015.0153] | – | – | – | – | – | – | – | – | – | – | – | – | – | 6.21 | – | – | 6.42
WFDITKWLWY [Peptide 9015.0160] | – | – | – | – | – | – | – | – | – | – | – | – | – | – | – | – | 5.47
WFSITNWLWY [Peptide 9015.0159] | – | – | – | – | – | – | – | – | – | – | – | – | – | 7.52 | – | – | –
YRHYQYSLYGKTLEE [Peptide 1543.58] | 5.54 | 6.56 | < 4.70 | 6.39 | 8.39 | 6.84 | 4.92 | 6.19 | 7.59 | 5.59 | 7.96 | 7.60 | < 4.70 | – | – | 6.02 | –
